What was measured:
[1] = Cytoprotection in mouse CRL2181 cells assessed as reduction in UV-oxidized LDL-induced cytotoxicity by measuring cell viability at 1 uM after 24 hrs by MTT assay relative to untreated control; assay type: functional
[2] = Antioxidant activity assessed as reduction in mouse CRL2181 cells-mediated human LDL oxidation by measuring TBARS level at 10 uM after 18 hrs; assay type: physicochemical, cell-based; parameters: scale not given: the % may be the effect or the level left
[3] = Cytoprotection in mouse CRL2181 cells assessed as reduction in UV-oxidized LDL-induced cytotoxicity by measuring cell viability at 10 uM after 24 hrs by MTT assay relative to untreated control; assay type: functional
[4] = Antioxidant activity assessed as DPPH radical scavenging activity by UV-Visible spectrophotometry; assay type: physicochemical
[5] = Antioxidant activity assessed as reduction in mouse CRL2181 cells-mediated human LDL oxidation by measuring TBARS level at 1 uM after 18 hrs; assay type: physicochemical, cell-based; conditions: read-out: Activity
[6] = Antioxidant activity assessed as superoxide anion radical scavenging activity at 10 uM by PMS-NADH-NBT system based spectrophotometry; assay type: physicochemical

| SMILES | Activity [2] [%] | IC50 [4] [µM] | Activity [6] [%] | Activity [1] [%] | Activity [3] [%] | inhibition at 1 µM [5] [%] |
| --- | --- | --- | --- | --- | --- | --- |
| COc1cc(/C=N/Nc2nncc3ccccc23)cc(OC)c1O | 4 | 28 |  | 46 | 66 | 38 |
| COc1cc(/C=N/NC(=O)OCc2ccccc2)cc(OC)c1O | 3 | 60.5 |  | 45 | 69 | 38 |
| COc1cc(/C=N/NC(=O)c2ccncc2)cc(OC)c1O | 7 | 17 |  | 34 | 65 | 48 |
| COc1cc(/C=N/NC(=O)c2ccncc2)cc(OC)c1OC | 94 | > 1000 |  | 4 | 4 | 95 |
| COc1cc(/C=N/N2C(=O)CSC2=S)ccc1O | 5 | 12.9 |  | 34 | 72 | 66 |
| COc1cc(/C=N/Nc2nncc3ccccc23)cc(OC)c1OC.Cl | 93 | 40.2 |  | 6 | 5 | 96 |
| COc1cc(/C=N/Nc2nncc3ccccc23)ccc1O.Cl | 4 | 19.9 |  | 24 | 100 | 46 |
| Cl.Oc1ccc(/C=N/Nc2nncc3ccccc23)cc1O | 3 | 6.7 |  | 34 | 72 | 51 |
| COc1cc(/C=N/NC(=O)c2ccncc2)cc(O)c1O | 8 | 18.4 |  | 41 | 80 | 59 |
| O=C(N/N=C/c1ccc(O)c(O)c1)c1ccncc1 | 4 | 6.1 |  | 84 | 101 | 19 |
| COc1cc(/C=N/NC(=O)c2ccncc2)c(O)cc1O | 82 | 15.3 |  | 18 | 20 | 87 |
| COc1cc(/C=N/NC(=O)OCc2ccccc2)ccc1O | 36 | 39.7 |  | 73 | 73 | 75 |
| COc1cc(/C=N/NC(=O)OCc2ccccc2)c(O)cc1O | 6 | 13.5 |  | 43 | 79 | 74 |
| COc1cc(/C=N/N(C)C(=O)OCc2ccccc2)ccc1O.Cl | 5 | 26.2 |  | 41 | 71 | 58 |
| COc1cc(/C=N/Nc2nc3ccccc3s2)cc(OC)c1OC | 14 | 43.1 | 34 | 4 | 57 | 100 |
| Oc1ccc(/C=N/Nc2nc3ccccc3s2)cc1O | 7 |  | 41.7 | 33 | 57 | 44 |
| COc1cc(/C=N/Nc2nc3ccccc3s2)cc(O)c1O | 7 | 6.8 |  | 38 | 54 | 56 |
| COc1cc(/C=N/N(C)c2nc3ccccc3s2)cc(OC)c1O | 3 |  | 43.3 | 107 | 110 | 5 |
| COc1cc(/C=N/N2C(=O)CSC2=S)cc(OC)c1O | 5 | 11.8 |  | 53 | 85 | 59 |
| O=C(/C=C/c1ccc(O)c(O)c1)O[C@@H]1C[C@](O)(C(=O)O)C[C@@H](O)[C@H]1O [CHLOROGENIC ACID] |  |  | 35.5 |  |  |  |
| COc1cc(/C=N/NC(=O)c2ccncc2)ccc1O [FTIVAZIDE] | 95 | 86 |  | 36 | 63 | 90 |
| O=C(N/N=C/c1ccccc1O)c1ccncc1 [SALINAZID] | 31 | > 1000 |  | 20 | 24 | 75 |

Continued, in another order:

| Activity [2] [%] | IC50 [4] [µM] | Activity [6] [%] | SMILES | Activity [1] [%] | Activity [3] [%] | inhibition at 1 µM [5] [%] |
| --- | --- | --- | --- | --- | --- | --- |
| 3 |  | 35 | COc1cc(/C=N/Nc2nc3ccccc3s2)cc(OC)c1O | 39 | 55 | 36 |
| 7 |  |  | COc1cc(/C=N/Nc2nc3ccccc3s2)ccc1O | 44 | 61 | 65 |
| 3 |  | 36.7 | COc1cc(/C=N/Nc2nncc3ccccc23)cc(O)c1O.Cl | 69 | 97 | 27 |
| 100 | > 1000 |  | COc1cc(/C=N/NC(=O)OCc2ccccc2)cc(OC)c1OC | 5 | 4 | 95 |
| 2 | 21.3 | 41.4 | COc1cc(/C=N/NC(=O)OCc2ccccc2)cc(O)c1O | 34 | 57 | 17 |
| 6 | 7.3 |  | O=C(N/N=C/c1ccc(O)c(O)c1)OCc1ccccc1 | 48 | 84 | 27 |
| 104 | > 1000 |  | O=C(N/N=C/c1ccccc1O)OCc1ccccc1 | 24 | 34 | 106 |
| 5 | 119 |  | COc1cc(/C=N/N(C)C(=O)OCc2ccccc2)cc(OC)c1O.Cl | 55 | 64 | 10 |
| 90 | > 7.1 |  | COc1cc(/C=N/N(C)C(=O)OCc2ccccc2)cc(OC)c1OC.Cl | 6 | 6 | 98 |
| 82 | > 1000 |  | COc1cc(/C=N/N(C)c2nc3ccccc3s2)cc(OC)c1OC | 7 | 7 | 84 |
| 9 | 26.6 |  | COc1cc(/C=N/N(C)c2nc3ccccc3s2)ccc1O | 96 | 96 | 20 |
| 5 | 13.1 |  | O=C1CSC(=S)N1/N=C/c1ccccc1O | 26 | 87 | 79 |
| 55 |  |  | Cc1c(C)c2c(c(C)c1O)CC[C@@](C)(CCC[C@H](C)CCC[C@H](C)CCCC(C)C)O2 [ALPHA-TOCOPHEROL] |  | 47 | 78 |
| 33 | 20.1 | 22.2 | Cc1c(C)c2c(c(C)c1O)CCC(C)(C(=O)O)O2 (stereo unspecified) [TROLOX] | 50 | 76 | 69 |
